Patent US20110256121A1, “METHODS AND KITS FOR DIAGNOSING OR MONITORING AUTOIMMUNE AND CHRONIC INFLAMMATORY DISEASES” (THE REGENTS OF THE UNIVERSITY OF MICHIGAN, priority 2008, published 2011)

What was measured:
T cell CD70 expression = assay: CD70 expression on PHA-stimulated T cells by flow cytometry; format: cell-based, human; conditions: for CD70 expression on treated vs untreated PHA-stimulated T cells: unfractionated T cells, 3 days, dose-response for procainamide, PD98059, U0126
Protocol: Cells and cell culture. Peripheral blood mononuclear cells (PBMCs) were isolated by density-gradient centrifugation. T cells were then isolated by E-rosetting (See, e.g., Golbus et al., Clin Immunol Immunopathol 46, 129 (1988)). […] Where indicated, the cells were cultured in RPMI 1640/10% fetal calf serum (FCS) supplemented with interleukin-2 (IL-2) (See, e.g., Richardson et al., Clin Immunol Immunopathol 55, 368 (1990)), in round-bottomed 5-ml culture tubes (Falcon). Cells were stimulated with 1 μg/ml of PHA (Remel) for 16 hours, then cultured in 24-well plates at a density of 1×10^6 for an additional 72 hours in the presence of 2-deoxy-5-azaC or 5-azaC (Sigma-Aldrich), procainamide (Sigma-Aldrich), hydralazine (Sigma-Aldrich), or the MEK inhibitors U0126 (Promega) or PD98059 (Promega). In other studies, PHA-stimulated PBMCs were cultured in RPMI 1640/10% FCS and treated with indomethacin, chloroquine, hydrocortisone, and 6-mercaptopurine (6-MP) (all from Sigma-Aldrich). TT48E, a cloned, CD4+, tetanus toxoid-reactive human T cell line, was cultured as previously described (Cornacchia et al., J Immunol 140, 2197 (1988); Richardson et al., Arthritis Rheum 35, 647 (1992)).
Flow cytometric analysis. The following fluorochrome-conjugated monoclonal antibodies were obtained from BD PharMingen (San Diego, Calif.): FITC-conjugated anti-human CD70, CD2, or isotype-matched controls; phycoerythrin (PE)-conjugated anti-CD2, CD4, and CD8; and CyChromeconjugated anti-HLA-DR, CD2, and isotype controls. Staining and multicolor flow cytometric analysis were performed (See, e.g., Hale et al., Cell Immunol 220, 51 (2002)) using saturating concentrations of antibody.
The panel of inhibitors used included 5-azaC, an irreversible DNA methyltransferase inhibitor (See, e.g., Glover and Leyland-Jones, Cancer Treat Rep 71, 959 (1987)) procainamide, a competitive DNA methyltransferase inhibitor (See e.g., Scheinbart et al., J Rheumatol 18, 530 (1991)), and the ERK pathway inhibitors PD98059, U0126, and hydralazine.
Studies were performed examining the effects of the DNA methylation inhibitors on CD70 expression in CD4+ and CD8+ T cell subsets.

[1] = test system: CD70-dependent B cell help; assay: TT48E T cell clone and autologous B cell costimulation without PWM, IgG ELISA; format: cell-based, human; conditions: P<0.05
Protocol: T cell and B cell costimulation assays. E-rosette-purified T cells were stimulated for 16 hours with PHA and then treated with the indicated chemicals for an additional 72 hours as described above. Where indicated, T cell subsets were isolated by negative selection using magnetic beads (Miltenyi). B cells (1-4×10^5) enriched by negative selection using magnetic beads (Miltenyi) and assessed to be 70-85% pure using PE-conjugated anti-human CD21 (PharMingen), were added to washed, drug-treated autologous T cells, at T cell to B cell ratios of 4:1, 2:1, 1:1, 1:2, and 1:4. Where indicated, 0.625 μg/ml of PWM (Aldrich) was added. The cells were cultured in RPMI 1640/10% FBS/penicillin/streptomycin for 8 days in 96-well roundbottomed plates (Costar) containing a 200 μl total volume (performed in duplicate). Cells were supplemented with 50 μl of medium on day 4. Where indicated, 1 μg/ml of anti-CD70 monoclonal antibody (HNE51) (Dako) was added to the cultures. TT48E cells were similarly stimulated with PHA (1 μg/ml) for 18 hours, treated with the indicated drugs for 3 days, then similarly cultured with autologous B cells for 8 days. […]
IgG enzyme-linked immunosorbent assays (ELISAs). […] Serial dilutions of purified human IgG (Sigma) were used for quantitation. […] The plates were read at 405 nm using a SpectraMax spectrophotometer (Molecular Devices). […]

CD70 mRNA = conditions: treated vs untreated T cells, real time RT-PCR

Structure (SMILES)	increase of CD70 MFI on CD4+ T cells (T cell CD70 expression; 1 μM 5-azaC, n=5, P=0.025)	CD70 expression on CD4+ T cells (T cell CD70 expression)	5-azaC concentration producing the greatest effect on CD70 expression (T cell CD70 expression; range of 5-azaC concentrations, n=5)	CD70 expression on treated vs untreated PHA-stimulated T cells (T cell CD70 expression; 1 μM 5-azaC)	IgG produced by B cells cultured with drug-treated TT48E vs untreated T cells [1]	CD70 mRNA relative to beta-actin (CD70 mRNA)	increase of CD70 MFI on CD4+ T cells (T cell CD70 expression; 40 μM U0126, n=4, P=0.039)	increase of CD70 MFI in T cells treated with U0126 (FIG. 2I) (T cell CD70 expression; U0126, P=0.085, stated in the CD8+ context)
Nc1ncn([C@@H]2O[C@H](CO)[C@@H](O)[C@H]2O)c(=O)n1 [5-azaC, 5-azacytidine]	1.53±0.45 fold	increased CD70 expression on CD4+ T cells	1 µM	small increase	produce greater amounts of IgG	increased the expression of CD70 mRNA	–	–
N#CC(=C(/N)Sc1ccccc1N)/C(C#N)=C(\N)Sc1ccccc1N [U0126]	–	increased CD70 expression on CD4+ T cells	–	increase in CD70 expression with treatment	produce greater amounts of IgG	increased the expression of CD70 mRNA	3.20±0.44 fold	2.83±0.95 fold
